≈ marks a conversion by molar mass, not a printed value. Like-named read-outs stand apart in the source and are kept apart here.
Assays:
A. baumannii = assay: MIC, broth microdilution, CDC/FDA Antibiotic Resistance Isolate Bank (Example 7, Tables 9, 13, 14); assay type: cell-based, Acinetobacter baumannii; details: for MIC: read-out: MIC
P. aeruginosa = assay: MIC, broth microdilution, CDC/FDA Antibiotic Resistance Isolate Bank (Example 7, Tables 10, 15); assay type: cell-based; details: for MIC: Pseudomonas aeruginosa, read-out: MIC
[1] = MIC distribution, metallo-β-lactamase-producing A. baumannii, inhibitor µg/mL in parentheses
[2] = 26 metallo-carbapenemase-producing P. aeruginosa strains, β-lactamase inhibitor µg/mL in parentheses
[3] = 96 strains of P. aeruginosa, β-lactamase inhibitor µg/mL in parentheses

C[C@H]1COc2c(N3CCN(C)CC3)c(F)cc3c(=O)c(C(=O)O)cn1c23 [Levofloxacin, levofloxacin]
MIC (A. baumannii; Acinetobacter baumannii, KUB No. 5719, AR Bank #286): 8 µg/mL (≈ 22.1 µM) | MIC (A. baumannii; Acinetobacter baumannii, KUB No. 5720, AR Bank #287): 16 µg/mL (≈ 44.3 µM) | MIC (A. baumannii; Acinetobacter baumannii, KUB No. 5721, AR Bank #288): > 64 µg/mL | MIC (A. baumannii; Acinetobacter baumannii, KUB No. 5722, AR Bank #259): 16 µg/mL (≈ 44.3 µM) | MIC (A. baumannii; Acinetobacter baumannii, KUB No. 5723, AR Bank #290): 8 µg/mL (≈ 22.1 µM) | MIC (A. baumannii; Acinetobacter baumannii, KUB No. 5724, AR Bank #291): 8 µg/mL (≈ 22.1 µM) | MIC (A. baumannii; Acinetobacter baumannii, KUB No. 5725, AR Bank #292): 4 µg/mL (≈ 11.1 µM) | MIC (A. baumannii; Acinetobacter baumannii, KUB No. 5726, AR Bank #293): 4 µg/mL (≈ 11.1 µM) | MIC (A. baumannii; Acinetobacter baumannii, KUB No. 5727, AR Bank #294): 32 µg/mL (≈ 88.6 µM) | MIC (A. baumannii; Acinetobacter baumannii, KUB No. 5728, AR Bank #295): 16 µg/mL (≈ 44.3 µM) | MIC (A. baumannii; Acinetobacter baumannii, KUB No. 5729, AR Bank #296): 32 µg/mL (≈ 88.6 µM) | MIC (A. baumannii; Acinetobacter baumannii, KUB No. 5730, AR Bank #297): 32 µg/mL (≈ 88.6 µM) | MIC (A. baumannii; Acinetobacter baumannii, KUB No. 5731, AR Bank #298): 8 µg/mL (≈ 22.1 µM) | MIC (A. baumannii; Acinetobacter baumannii, KUB No. 5732, AR Bank #299): 64 µg/mL (≈ 177 µM) | MIC (A. baumannii; Acinetobacter baumannii, KUB No. 5733, AR Bank #300): 64 µg/mL (≈ 177 µM) | MIC (A. baumannii; Acinetobacter baumannii, KUB No. 5734, AR Bank #301): 16 µg/mL (≈ 44.3 µM) | MIC (A. baumannii; Acinetobacter baumannii, KUB No. 5735, AR Bank #302): > 64 µg/mL | MIC (A. baumannii; Acinetobacter baumannii, KUB No. 5736, AR Bank #303): 16 µg/mL (≈ 44.3 µM) | MIC (A. baumannii; Acinetobacter baumannii, KUB No. 5737, AR Bank #304): 16 µg/mL (≈ 44.3 µM) | MIC (A. baumannii; Acinetobacter baumannii, KUB No. 5738, AR Bank #305): 16 µg/mL (≈ 44.3 µM) | MIC (A. baumannii; Acinetobacter baumannii, KUB No. 5739, AR Bank #306): 32 µg/mL (≈ 88.6 µM) | MIC (A. baumannii; Acinetobacter baumannii, KUB No. 5740, AR Bank #307): 16 µg/mL (≈ 44.3 µM) | MIC (A. baumannii; Acinetobacter baumannii, KUB No. 5741, AR Bank #308): 16 µg/mL (≈ 44.3 µM) | MIC (A. baumannii; Acinetobacter baumannii, KUB No. 5742, AR Bank #309): 64 µg/mL (≈ 177 µM) | MIC (A. baumannii; Acinetobacter baumannii, KUB No. 5743, AR Bank #310): 32 µg/mL (≈ 88.6 µM) | MIC (A. baumannii; Acinetobacter baumannii, KUB No. 5744, AR Bank #311): 4 µg/mL (≈ 11.1 µM) | MIC (A. baumannii; Acinetobacter baumannii, KUB No. 5745, AR Bank #312): 4 µg/mL (≈ 11.1 µM) | MIC (A. baumannii; Acinetobacter baumannii, KUB No. 5746, AR Bank #313): 8 µg/mL (≈ 22.1 µM) | MIC50 (A. baumannii; Acinetobacter baumannii, 55 isolates of A. baumannii, read-out: MIC50): 16 µg/mL (≈ 44.3 µM) | MIC80 (A. baumannii; Acinetobacter baumannii, 55 isolates of A. baumannii, read-out: MIC80): 32 µg/mL (≈ 88.6 µM) | MIC90 (A. baumannii; Acinetobacter baumannii, 55 isolates of A. baumannii, read-out: MIC90): 64 µg/mL (≈ 177 µM) | Number of isolates at MIC 8 µg/mL (A. baumannii; [1]): 3 | Number of isolates at MIC 16 µg/mL (A. baumannii; [1]): 1 | MIC against 26 metallo-carbapenemase-producing strains MIC50 (P. aeruginosa; [2]): 32 µg(mL) | MIC against 26 metallo-carbapenemase-producing strains MIC90 (P. aeruginosa; [2]): >64 µg(mL) | MIC against 96 strains of P. aeruginosa MIC50 (P. aeruginosa; [3]): 32 µg(mL) | MIC against 96 strains of P. aeruginosa MIC90 (P. aeruginosa; [3]): 64 µg(mL) | MIC (P. aeruginosa; P. aeruginosa KUB No. 579, AR Bank # 447): 0.5 µg/mL (≈ 1.38 µM) | MIC (P. aeruginosa; P. aeruginosa KUB No. 5083, AR Bank # 250): 64 µg/mL (≈ 177 µM) | MIC (P. aeruginosa; P. aeruginosa KUB No. 5551, AR Bank # 54): 64 µg/mL (≈ 177 µM) | MIC (P. aeruginosa; P. aeruginosa KUB No. 5561, AR Bank # 64): 32 µg/mL (≈ 88.6 µM) | MIC (P. aeruginosa; P. aeruginosa KUB No. 5587, AR Bank # 90): 32 µg/mL (≈ 88.6 µM) | MIC (P. aeruginosa; P. aeruginosa KUB No. 5589, AR Bank # 92): 64 µg/mL (≈ 177 µM) | MIC (P. aeruginosa; P. aeruginosa KUB No. 5591, AR Bank # 94): 64 µg/mL (≈ 177 µM) | MIC (P. aeruginosa; P. aeruginosa KUB No. 5592, AR Bank # 95): 32 µg/mL (≈ 88.6 µM) | MIC (P. aeruginosa; P. aeruginosa KUB No. 5597, AR Bank # 100): > 64 µg/mL | MIC (P. aeruginosa; P. aeruginosa KUB No. 5600, AR Bank # 103): 64 µg/mL (≈ 177 µM) | MIC (P. aeruginosa; P. aeruginosa KUB No. 5602, AR Bank # 105): > 64 µg/mL | MIC (P. aeruginosa; P. aeruginosa KUB No. 5605, AR Bank # 108): 64 µg/mL (≈ 177 µM) | MIC (P. aeruginosa; P. aeruginosa KUB No. 5607, AR Bank # 110): 32 µg/mL (≈ 88.6 µM) | MIC (P. aeruginosa; P. aeruginosa KUB No. 5608, AR Bank # 111): 32 µg/mL (≈ 88.6 µM) | MIC (P. aeruginosa; P. aeruginosa KUB No. 5662, AR Bank # 229): 64 µg/mL (≈ 177 µM) | MIC (P. aeruginosa; P. aeruginosa KUB No. 5663, AR Bank # 230): 32 µg/mL (≈ 88.6 µM) | MIC (P. aeruginosa; P. aeruginosa KUB No. 5664, AR Bank # 231): 64 µg/mL (≈ 177 µM) | MIC (P. aeruginosa; P. aeruginosa KUB No. 5665, AR Bank # 232): 8 µg/mL (≈ 22.1 µM) | MIC (P. aeruginosa; P. aeruginosa KUB No. 5666, AR Bank # 23): 2 µg/mL (≈ 5.53 µM) | MIC (P. aeruginosa; P. aeruginosa KUB No. 5667, AR Bank # 234): 8 µg/mL (≈ 22.1 µM) | MIC (P. aeruginosa; P. aeruginosa KUB No. 5668, AR Bank # 235): 64 µg/mL (≈ 177 µM) | MIC (P. aeruginosa; P. aeruginosa KUB No. 5669, AR Bank # 236): 16 µg/mL (≈ 44.3 µM) | MIC (P. aeruginosa; P. aeruginosa KUB No. 5670, AR Bank # 237): 0.5 µg/mL (≈ 1.38 µM) | MIC (P. aeruginosa; P. aeruginosa KUB No. 5671, AR Bank # 238): 0.5 µg/mL (≈ 1.38 µM) | MIC (P. aeruginosa; P. aeruginosa KUB No. 5672, AR Bank # 239): 64 µg/mL (≈ 177 µM) | MIC (P. aeruginosa; P. aeruginosa KUB No. 5673, AR Bank # 240): > 64 µg/mL | MIC (P. aeruginosa; P. aeruginosa KUB No. 5674, AR Bank # 241): 32 µg/mL (≈ 88.6 µM) | MIC (P. aeruginosa; P. aeruginosa KUB No. 5675, AR Bank # 242): 16 µg/mL (≈ 44.3 µM) | MIC (P. aeruginosa; P. aeruginosa KUB No. 5676, AR Bank # 243): 16 µg/mL (≈ 44.3 µM)

— patent EP4635500A1, “THERAPEUTIC AGENT FOR BACTERIAL INFECTION” (Sumitomo Pharma Co., Ltd., priority 2022, dated 2024)
